Ends that are not written are not given here.
Experiments:
J-96 Human Cell Line = settings: cell cultures (Ataullakhanov et al. 2005); cited from earlier work
[1] = tested on: inflammatory cytokine production; settings: cell cultures; cited from earlier work
Toxicity at high dosages = format: in vivo; settings: high dosages of 50 mg per kg body weight per day or higher
Description: The dosage of Ezrin peptide 1 and its analogues is not particularly critical, as Ezrin peptide 1 and its analogues are not toxic even at high dosages of 50 mg per kg body weight per day or higher. Preferably, Ezrin peptide 1 and its analogues are administered to an adult human in an amount of at least 0.1 mg per day, in particular at least 0.2 mg per day, e.g. in an amount of at least 0.5 mg per day, such as 0.1 to 50 mg per day or 0.2 to 20 mg per day or 0.5 to 10 mg per day. Typically for parental administrations lower dosages will be required than for oral or rectal administration. To achieve a rapid relief of the symptoms of COVID-19 it may be reasonable to administer at least 1 mg per day or at least 2 mg per day but in other cases a lower dosage may be suitable.

SARS-COV-2 = assay: Treatment of COVID-19 patients with Ezrin peptide 1 (individual case reports, Examples 1-6); format: in vivo, human

## TEKKRRETVEREKE [Ezrin peptide 1, NH2_Thr-Glu-Lys-Lys-Arg-Arg-Glu-Thr-Val-Glu-Arg-Glu-Lys-Glu_COOH]
J-96 Human Cell Line
  anti-viral effect: anti-viral effect
[1]
  production of pro- and inflammatory cytokins (e.g. IL-1, IL-6, TNF-alpha): reduces
  synthesis of alpha- and beta interferons: induces
Toxicity at high dosages
  toxicity: not toxic
SARS-COV-2; Example 1
  severe complications such as fibrosis of the lungs: did not occur
SARS-COV-2; Example 1, patient, 0.2 mg s.c. daily, 16.03.2020, 3rd administration
  course of disease, symptoms: increasing symptoms with strong eye pain
SARS-COV-2; Example 1, patient, 0.2 mg s.c. daily, 17.03.2020, 4th administration
  course of disease, symptoms: increasing symptoms with more cough
SARS-COV-2; Example 1, patient, 0.2 mg s.c. daily, 18.03.2020, 5th administration
  course of disease, symptoms: significant signs of recovery, no eye pain, decreasing fever
SARS-COV-2; Example 1, patient, 0.2 mg s.c. daily, 19.03.2020, 6th administration
  course of disease, symptoms: significant signs of recovery, normal body temperature, no fatigue
SARS-COV-2; Example 1, patient, 0.2 mg s.c. daily, 20.03.2020, 7th administration
  course of disease, symptoms: return of taste, good general condition
SARS-COV-2; Example 1, patient, 0.2 mg s.c. daily, 21.03.2020, 8th administration
  course of disease, symptoms: no signs of illness anymore
SARS-COV-2; Example 1, compared to the course expected for patients of this risk group
  course of the disease (duration): significantly shorter
SARS-COV-2; Example 1, compared with what one would have expected in a patient of this risk group
  severity of symptoms after administration: significantly lower
SARS-COV-2; Example 2, patient, 2 mg s.c., 25.04.2020, second dose
  course of disease, symptoms: still general weakness, shortness of breath, cough, loss of appetite
SARS-COV-2; Example 2, patient, 2 mg s.c., 26.04.2020 in the evening, third administration
  body temperature: 37.5 °C
SARS-COV-2; Example 2, patient, 2 mg s.c., 26.04.2020, third administration
  course of disease, symptoms: Still loss of appetite, slight cough
SARS-COV-2; Example 2, patient, 2 mg s.c., 27.04.2020, fourth dose
  course of disease, symptoms: Slight cough, slight headache
SARS-COV-2; Example 2, patient, 2 mg s.c., 28.04.2020, fifth administration
  course of disease, symptoms: Only slight pain of touching the scalp, still slight weakness
SARS-COV-2; Example 2, patient, 2 mg s.c., 30.04.2020, sixth administration
  course of disease, symptoms: Significant improvement of clinical symptoms, normal temperature
SARS-COV-2; Example 2, patient, 01. to 04.05.2020, after six doses, antibiotic coverage
  course of disease, symptoms: taste completely returned, no more cough, no more fever, clinical well-being
SARS-COV-2; Example 3, patient, 25.12.2020, therapy begun 23.12.2020 with 2 mg/d s.c.
  course of disease, symptoms: significant improvement of cough and general condition
SARS-COV-2; Example 3, patient, after completion of therapy (2 mg/d then 0.2 mg/d for four days, s.c.)
  course of disease, symptoms: No further symptoms
SARS-COV-2; Example 4, patient, 25.12.2020, therapy begun 23.12.2020 with 2 mg/d s.c.
  course of disease, symptoms: significant improvement of cough and general condition
SARS-COV-2; Example 4, patient, after completion of therapy (2 mg/d two days, 0.2 mg/d four days, s.c.)
  course of disease, symptoms: No further symptoms
SARS-COV-2; Example 5, patient, 26.12.2020, therapy begun 23.12.2020 with 2 mg/d s.c.
  course of disease, symptoms: significant improvement of symptoms
SARS-COV-2; Example 5, patient, after subsequent 0.2 mg/d s.c. for fourteen days from 15.01.2021
  shortness of breath: No further shortness of breath
SARS-COV-2; Example 6, patient, 14.12.2020, 0.2 mg/d s.c. begun 10.12.2020
  course of disease, symptoms: significant improvement of symptoms
SARS-COV-2; Example 6, patient, 20.12.2020, 0.2 mg/d s.c. for ten days
  course of disease, symptoms: complete recovery of symptoms

— patent publication US12629405B2, “Ezrin peptide 1 for use in a method of treating COVID-19” ([…], priority 2020, dated 2026)
